Legend:
Assay type in all cases: cell-based
[1] = tested on: varicella-zoster virus (VZV TK+); assay: microbe, parasite or virus in culture; conditions: Human alphaherpesvirus 3, HEL, read-out: EC50 (HEL cells) VZV TK+
yellow fever virus (YFV) = assay: microbe, parasite or virus in culture; conditions: Vero, read-out: EC50 (Vero cells) YFV
Sindbis Virus (SINV) = assay: Antiviral activity against Sindbis virus in Vero cells; conditions: read-out: EC50 (Vero cells) SINV, Vero cells, viral induced cytopathic effect
[2] = tested on: human cytomegalovirus (HCMV Davis strain); assay: Antiviral activity against HCMV Davis in HEL cells; conditions: Human betaherpesvirus 5, HEL, read-out: EC50 (HEL cells) HCMV Davis

O=c1[nH]c(=O)n([C@H]2C[C@H](O)[C@@H](CO)O2)cc1/C=C/Br [Brivudin]
EC50 [1]: 0.012 µM

COc1c(C)c2c(c(O)c1C/C=C(\C)CCC(=O)O)C(=O)OC2 [Mycophenolic acid]
EC50 (yellow fever virus (YFV)): 4 µM | EC50 (Sindbis Virus (SINV)): 4 µM

C/C(=C\CP(=O)(N[C@@H](C)C(=O)OC(C)C)Oc1cccc2ccccc12)Cn1cc(C)c(=O)[nH]c1=O (stereo partly drawn) [E-8a, (E)-N^1-(4′-O-(1-Naphthyl)-(isopropyloxy-L-alanine)-phosphinyl-2′-methyl-but-2′-enyl)thymine]
EC50 [1]: 44.7 µM

Nc1ccn(C[C@@H](CO)OCP(=O)(O)O)c(=O)n1 [Cidofovir]
EC50 [2]: 0.76 µM
